In US11001591B2, “TRAF 6 inhibitors” (HELMHOLTZ ZENTRUM MUENCHEN—DEUTSCHES FORSCHUNGSZENTRUM FÜR …, priority 2016, dated 2021):

Tests used:
[1] = molecular target: T1, clAP1 (Homo sapiens, UniProt Q13490); experiment: In vitro ubiquitination assay, clAP1; format: biochemical; conditions: RING E3 ligase; K63 chain formation
T1 construct: purchased Boston Biochem one of K-102, K-260, K-200B, K-220, K-240, K-270
Procedure: (§1) For analysis of clAP1, MDM2, TRIM63, RNF4, ITCH and E6AP mediated poly-ubiquitination, the respective ubiquitin ligase kit from Boston Biochem (K-102, K-260, K-200B, K-220, K-240 and K-270) was used. Here, reaction buffer, E1, E2 and E3 enzyme (and p53 substrate in case of MDM2) were mixed and pre-incubated with compound or DMSO for 5 minutes at room temperature before adding Mg^2+-ATP and mono-ubiquitin for reaction start. Ubiquitination was visualized by Western Blot analyses.

[2] = molecular target: T2, E6AP (Homo sapiens, UniProt Q05086); experiment: In vitro ubiquitination assay, E6AP; format: biochemical; conditions: HECT E3 ligase
T2 construct: purchased Boston Biochem one of K-102, K-260, K-200B, K-220, K-240, K-270
T2 sequence (Q05086 whole entry): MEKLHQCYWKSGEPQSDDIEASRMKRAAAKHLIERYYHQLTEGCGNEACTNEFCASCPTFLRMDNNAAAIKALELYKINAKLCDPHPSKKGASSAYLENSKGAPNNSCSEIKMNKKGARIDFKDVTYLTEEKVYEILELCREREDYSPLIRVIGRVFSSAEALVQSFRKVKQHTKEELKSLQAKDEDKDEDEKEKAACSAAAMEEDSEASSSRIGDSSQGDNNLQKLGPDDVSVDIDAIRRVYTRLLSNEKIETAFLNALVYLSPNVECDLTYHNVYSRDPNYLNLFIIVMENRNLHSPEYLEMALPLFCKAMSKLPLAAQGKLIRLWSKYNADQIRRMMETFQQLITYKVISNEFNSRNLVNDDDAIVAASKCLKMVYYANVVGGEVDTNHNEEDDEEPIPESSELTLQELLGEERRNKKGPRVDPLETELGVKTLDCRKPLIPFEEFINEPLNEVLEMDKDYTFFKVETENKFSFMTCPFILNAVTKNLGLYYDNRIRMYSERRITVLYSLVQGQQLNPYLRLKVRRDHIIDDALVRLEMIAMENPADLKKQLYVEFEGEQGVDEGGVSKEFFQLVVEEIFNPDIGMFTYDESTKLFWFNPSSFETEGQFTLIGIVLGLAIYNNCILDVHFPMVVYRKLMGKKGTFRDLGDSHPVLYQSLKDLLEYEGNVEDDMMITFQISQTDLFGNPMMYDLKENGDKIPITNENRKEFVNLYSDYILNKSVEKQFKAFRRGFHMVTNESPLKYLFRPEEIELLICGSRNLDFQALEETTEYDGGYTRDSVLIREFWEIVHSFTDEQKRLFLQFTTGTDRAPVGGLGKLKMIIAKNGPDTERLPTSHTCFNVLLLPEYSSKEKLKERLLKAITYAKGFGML
Procedure: as §1

[3] = system: 24 different Ubiquitin reaction cascades; experiment: Ubiquitin Profiler (Eurofins); format: biochemical; conditions: 30 μM compound
Procedure: C25-140 was sent to Eurofins Pharma Discovery Services UK to perform a Single Point Ubiquitin Profiler testing of C25-140 effect at a concentration of 30 μM on 24 different Ubiquitin reaction cascades employing distinct combinations of E2, E3 and substrate. Each reaction was measured in duplicates. Cascade activity is expressed as a percentage of the mean cascade activity in the positive control samples. The positive control value is considered to be 100%, and all test samples are referred to this value.

[4] = system: IKK kinase activity; experiment: IKK kinase assay in Jurkat T-cells; format: cell-based, human; conditions: PMA/Ionomycin
Procedure: For MEF cells, 5.5×10^5 cells were seeded, then treated with compound for 6 hours and eventually stimulated with IL-1β or TNFα for 8 minutes. 1×10^6 Jurkat T-cells were treated with compound for 6 hours and finally stimulated with PMA (400 ng/ml) and lonomycin (600 ng/ml) for 8 minutes. After cell lysis in Co-IP lysis buffer (150 mM NaCl; 25 mM Hepes (pH 7.5); 0.2% NP-40; 1 mM Glycerol; 10 mM NaF; 8 mM β-Glycerophosphat; 1 mM DTT; 300 μM Sodium-vanadate; complete protease inhibitor), input samples were taken and the supernatant was then incubated with 6 μL IKKγ antibody FL-419 (Santa Cruz Biotechnology). Upon incubation with Protein-G-Sepharose beads (GE Healthcare), beads were washed in Co-IP wash buffer (150 mM NaCl; 25 mM Hepes (pH 7.5); 0.2% NP-40; 1 mM Glycerol) and transferred into kinase reaction buffer ([…] HEPES pH7.9; 10 mM MgCl2; 20 μM ATP; 20 mM β-Glycerophosphat; 200 μM Sodium-Vanadate; 1 mM DTT) supplemented with […] GST-IκBα (1-53) and 0.5 μL ^32P-γ-ATP. After 30 minutes incubation at 37° C., reaction was stopped and analyzed by autoradiography as well as Western Blot after separation on SDS-PAGE.

[5] = system: 87 primary molecular targets; experiment: SafetyScreen87 (Eurofins Cerep Panlabs); format: binding; conditions: 10 μM
Procedure: The SafetyScreen87, a total of 87 assays, was carried out at Eurofins Cerep Panlabs. 87 primary molecular targets including 13 enzyme assays (kinases and non-kinase enzymes) and 74 binding assays (nuclear receptors, GPCRs, transporters and ion channels) were performed at a compound concentration of 10 μM C25-140. Each of the 87 assay reactions was performed at the optimised condition that was historically available at Eurofins Cerep Panlabs. In parallel to C25-140, a reference compound for each of the 87 reactions was concurrently tested to guarantee optimal setting of the assays. In this study the reference compounds performed in the same range as historic Ki values.

[6] = system: IMQ-induced psoriasis, Balb/C mice; experiment: Imiquimod (IMQ)-induced psoriasis mouse model; format: in vivo
Procedure: To evaluate the anti-inflammatory activity of the compound C25-140 (compound 3), an Imiquimod (IMQ)-induced psoriasis mouse model was conducted by Washington Biotechnology, Inc. (Baltimore, USA). Per group, 8 male Balb/C mice were shaved in the back (1.5 cm×2 cm) and IMQ and C25-140 were applied topically to the shaved back and the right ear daily for 6 days. Thereby, C25-140 was dissolved in acetone and applied at a total dosage of 500 μg per day (2×250 μg). Mice were monitored and daily scores (erythema, scaling and thickness of back skin) were independently collected on a scale from 0 to 4:0=none; 1=slight; 2=moderate; 3=marked and 4=very marked. Ear thickness was measured by electronic calipers as an indicator of edema. IL-17 cytokine secretion of the right ear tissue was measured by ELISA.

[7] = system: HBL1 (ABC-DLBCL-MYD88 L265P); experiment: Cell viability in DLBCL, HBL1; format: cell-based; conditions: 30 μM added at day 0, 4 and 8; 9 days
Procedure: To determine the effects of C25-140 on MYD88-dependent ABC-DLBCL, we chose the HBL1 (ABC-DLBCL-MYD88 L265P), U2932 (ABC DLBCL-MYD88 wt) and BJAB (GCB DLBCL) cell lines. 1×10^6 cells of each cell line was seeded in 5 ml and treated with 30 μM compound C25-140 (compound 3) or DMSO. The entire experiment was carried out for 9 days. Every day 500 μl were taken and viable cell number was acquired using the ViCEII cell counter (Beckmann Coulter). At days 4 and 8 of the experiment the volume was again adjusted to 5 ml and samples were supplemented with 30 μM compound C25-140 or DMSO. This process was necessary to ensure linear proliferation of DMSO treated cells. All curves of C25-140 treated samples were referred to the corresponding DMSO treated controls.

[8] = system: 78 oncological cell lines and control cell lines HS-5 and MCF 10A; experiment: Omniscreen cancer cell line panel, CellTiter-Glo; format: cell-based; conditions: nine concentrations, top 80 μM, 72 hours
Procedure: The effect of C25-140 on cell viability of 80 cancer cell lines using the CellTiter-Glo luminescent cell viability assay was conducted at CrownBioscience Inc. at the testing facility in Beijing. Here, 80 selected cell lines were cultured in media supplemented with 10-15% FBS, in the temperature of 37° C., 5% CO2 and 95% humidity. Culture medium was purchased from GIBCO or Sigma, USA. The cells were treated with C25-140 in 9 dose levels starting at 80 μM with 3.16-fold serial dilutions. Cisplatin served as a reference control and started with a top working concentration of 100 μM. Test samples were incubated for 72 hours and cell viability was measured by the CellTiter-Glo assay.

T1 sequence (Q13490 whole entry): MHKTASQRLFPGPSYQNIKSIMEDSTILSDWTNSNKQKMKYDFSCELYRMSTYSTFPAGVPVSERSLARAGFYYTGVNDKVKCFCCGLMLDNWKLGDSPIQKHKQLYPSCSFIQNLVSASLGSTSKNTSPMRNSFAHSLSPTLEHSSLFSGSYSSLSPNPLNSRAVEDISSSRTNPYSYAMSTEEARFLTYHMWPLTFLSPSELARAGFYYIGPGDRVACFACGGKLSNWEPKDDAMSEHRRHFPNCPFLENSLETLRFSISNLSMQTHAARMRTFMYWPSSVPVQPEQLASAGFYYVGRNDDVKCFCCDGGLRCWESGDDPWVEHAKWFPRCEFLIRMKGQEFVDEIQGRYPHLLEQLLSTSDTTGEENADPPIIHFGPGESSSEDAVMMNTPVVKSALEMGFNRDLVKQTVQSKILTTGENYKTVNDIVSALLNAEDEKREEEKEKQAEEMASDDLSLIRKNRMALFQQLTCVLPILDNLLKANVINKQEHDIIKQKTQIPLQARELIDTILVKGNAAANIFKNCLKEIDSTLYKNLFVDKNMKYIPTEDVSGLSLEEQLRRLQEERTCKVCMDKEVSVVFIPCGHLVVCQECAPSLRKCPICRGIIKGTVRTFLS

## Cc1nn(-c2ccc3nnc(C)n3n2)c(C)c1CCC(=O)N1CCC(Cc2ccccc2)CC1 [Compound 3, 1-(4-benzylpiperidin-1-yl)-3-(3,5-dimethyl-1-(3-methyl-[1,2,4]triazolo[4,3-b]pyridazin-6-yl)-1H-pyrazol-4-yl)propan-1-one]
[1]
  auto-ubiquitination of clAP1: dose-dependently diminished
[2]
  S5A ubiquitination by E6AP: not affected
[3]
  inhibition of ubiquitination cascades, Ubiquitin Profiler panel: None of the reactions is considerably inhibited
[4]
  IKK kinase activity: diminished
[5]
  binding to SafetyScreen87 targets: no significant binding
[6]; day 6, ELISA
  IL-17 in right ear tissue: decreased
[6]; topical twice daily, 6 days
  cumulative score (thickness, scaling, erythema of the back): reduces
  ear thickness: significantly reduced
  scaling, erythema and ear thickness scores: improvement of the disease symptoms
  thickness score of the back: significantly reduce
[7]
  viability (cell count): significantly reduced
[8]
  viability of cancer cell lines: major effect is on cancer cells of blood origin
  viability of control cell lines HS-5 and MCF 10A: not affected at all
